Reference: paper PMC9942557, “Bolaamphiphile Analogues of 12-bis-THA Cl2 Are Potent Antimicrobial Therapeutics with Distinct Mechanisms of Action against Bacterial, Mycobacterial, and Fungal Pathogens” (mSphere, 2022)
Read-outs that look alike come from different tables or passages of the source.

Legend:
C. krusei 3876 = experiment: Broth microdilution MIC; format: cell-based
[1] = test system: Pseudomonas aeruginosa PAO1; experiment: Broth microdilution MIC; format: cell-based
Dynamic light scattering = format: physicochemical; conditions: 0.36 mM in water
Method: Stock solutions of bolalipids were prepared by dispersing the powder in ultrapure water, then stirring vigorously by vortexing, and sonicating in a 40°C bath sonicator for 20 min. The concentration of each stock solution corresponds to the highest solubility achieved in water for each bolalipid, using the method described above. DLS experiments were performed on a Malvern Zetasizer Nano (Malvern Instruments, Worcestershire, UK) in back-scattering mode at 20°C. There were three independent measurements of each sample and 12 runs for each measurement, with 10 s taken for each run. The attenuator index and measurement position were automatically adjusted. Fifty microliters of each sample was transferred into polystyrene semi-microcuvettes for determination of UV and visible wavelengths (Sarstedt).

P. aeruginosa PAO1 = experiment: Checkerboard synergy assay; format: cell-based, Pseudomonas aeruginosa; conditions: for MIC: Pseudomonas aeruginosa, read-out: MIC Alone Bolalipid
Fungi (avg) = experiment: Selectivity index (toxicity/potency); format: cell-based, Candida spp.; conditions: ratio of average toxicity (HEK293 and HeLa) to average potency
Excerpt: TABLE 3 Selectivity indices of bolaamphiphiles | column: Selectivity of^a: / 12-bis-THA Cl2; Selectivity of^a: / Dequalinium; Selectivity of^a: / Quino-bola; Selectivity of^a: / Penta-bola; Selectivity of^a: / Hepta-bola; Selectivity of^a: / Octa-bola; Selectivity of^a: / Octa-C10; Selectivity of^a: / Octa-C8; Selectivity of^a: / Octa-C6

[2] = test system: Gram-positive bacteria (avg); experiment: Selectivity index (toxicity/potency); format: cell-based; conditions: ratio of average toxicity (HEK293 and HeLa) to average potency
[3] = test system: pBR322 plasmid, wheat germ topoisomerase I; experiment: DNA unwinding assay; format: biochemical; conditions: for DNA intercalation: relaxed pBR322 plasmid plus topoisomerase I (Fig. 2A); for relaxation of supercoiled plasmid through the action of topoisomerase I: supercoiled pBR322 plasmid, bolalipid present (Fig. 2B)
Method: A DNA unwinding assay kit (Inspiralis Limited, Norwich, UK) consists of wheat germ topoisomerase I assay buffer (50 mM Tris HCl [pH 7.9], 1 mM EDTA, 1 mM dithiothreitol [DTT], 20% [vol/vol] glycerol, 50 mM NaCl) dilution buffer (50 mM Tris HCl [pH 7.9], 1 mM EDTA, 1 mM DTT, 50% [vol/vol] glycerol, 500 mM NaCl), wheat germ topoisomerase I (5 U/μL), supercoiled plasmid pBR322 (1 μg/μL), and relaxed plasmid pBR322 (1 μg/μL). For the experiments, 2× DNA loading buffer containing 40% (wt/vol) sucrose, 100 mM Tris-HCl (pH 8), 1 mM EDTA, and 0.5 mg/mL bromophenol blue was prepared. The enzyme was diluted 1/5 with dilution buffer before being used in the assay. For the assay, 3 mM stock solutions in methanol of the compounds to be tested were prepared. An appropriate number of 1.5-mL Eppendorf tubes were filled with 25 μL of a mix consisting of assay buffer (15 μL of buffer per sample), supercoiled or relaxed pBR322 (0.5 μg/assay), and ultrapure water. In the first two tubes, 1 μL of methanol was added to test the effect of the solvent on both the plasmid and the enzyme. Subsequently, 1 μL of the test compounds was added to the remaining tubes, and the tubes briefly vortexed and incubated at room temperature for 5 min. After that, 2 μL of dilution buffer was added in the first tube, whereas 2 μL of enzyme diluted solution was added to the remaining tubes. The tubes were gently vortexed and incubated for 30 min at 37°C in a water bath. After this time, the reaction was stopped by adding 20 μL of water and 50 μL of water-saturated butanol to each tube. The tubes were vortexed and centrifuged for 1 min at 14,800 rpm. The lower aqueous layer of each tube was removed and transferred to a new tube containing 30 μL of chloroform-isoamyl alcohol (24/1) and 50 μL of loading buffer. The tubes were briefly vortexed and centrifuged for 1 min. Twenty microliters of the upper layer of each tube was loaded onto a 1% (wt/vol) agarose gel, and the gel was run at 80 V for approximately 4 h in Tris-acetate-EDTA buffer (40 mM Tris acetate and 1 mM EDTA). Subsequently, the gel was stained with ethidium bromide (1 μg/mL) for 15 min, briefly destained (5 to 10 min) in water, and visualized with a Multi-Doc Imaging M-26X UVP transilluminator.

C. auris temp probe = experiment: Broth microdilution MIC; format: cell-based, Candida auris; conditions: C. auris temp probe
C. parapsilosis 3209 = experiment: Broth microdilution MIC; format: cell-based
[4] = test system: Escherichia coli NCTC 12923; experiment: Broth microdilution MIC; format: cell-based
[5] = test system: VR Enterococcus faecalis NCTC 12201; experiment: Broth microdilution MIC; format: cell-based
C. albicans 3179 = experiment: Broth microdilution MIC; format: cell-based, Candida albicans; conditions: C. albicans 3179
[6] = test system: Klebsiella pneumoniae NCTC 13368; experiment: Broth microdilution MIC; format: cell-based
M. tuberculosis Bleupan = experiment: microbe, parasite or virus in culture; format: cell-based, Mycobacterium tuberculosis
Klebsiella pneumoniae M6 = experiment: Broth microdilution MIC; format: cell-based
[7] = test system: VR Enterococcus faecium NCTC 12204; experiment: Broth microdilution MIC; format: cell-based
[8] = test system: Acinetobacter baumannii ATCC 17978; experiment: Broth microdilution MIC; format: cell-based
C. tropicalis 8760 = experiment: Broth microdilution MIC; format: cell-based; conditions: C. tropicalis 8760
[9] = Pichia kudriavzevii, read-out: MIC
[10] = Candidozyma auris, read-out: MIC
[11] = Lodderomyces parapsilosis, read-out: MIC
[12] = NCTC12201, VR Enterococcus faecalis NCTC 12201, read-out: MIC
[13] = Candida albicans, read-out: MIC
[14] = Mycobacterium tuberculosis, read-out: MIC
[15] = NCTC12204, VR Enterococcus faecium NCTC 12204, read-out: MIC
[16] = Candida tropicalis, read-out: MIC
[17] = VR Enterococcus faecalis NCTC 12201
[18] = VR Enterococcus faecium NCTC 12204

SMILES	MIC (C. krusei 3876; [9]) [µg/mL]	MIC ([1]; read-out: MIC) [µg/mL]	nanoparticle formation (DLS) (Dynamic light scattering)	MIC (P. aeruginosa PAO1) [µg/mL]	Selectivity index (Fungi (avg))	Selectivity index [2]	DNA intercalation [3]	relaxation of supercoiled plasmid through the action of topoisomerase I [3]	MIC (C. auris temp probe; [10]) [µg/mL]	MIC (C. parapsilosis 3209; [11]) [µg/mL]	MIC ([4]; NCTC12923, read-out: MIC) [µg/mL]	MIC [5, 12] [µg/mL]	MIC (C. albicans 3179; [13]) [µg/mL]	MIC ([6]; NCTC13368, read-out: MIC) [µg/mL]	MIC (M. tuberculosis Bleupan; [14]) [µg/mL]	MIC (Klebsiella pneumoniae M6; read-out: MIC) [µg/mL]	MIC [7, 15] [µg/mL]	MIC ([8]; ATCC17978, read-out: MIC) [µg/mL]	MIC (C. tropicalis 8760; [16]) [µg/mL]	MIC [6] [µg/mL]	also measured
Nc1c2c([n+](CCCCCCCCCCCC[n+]3c4c(c(N)c5ccccc53)CCCCCC4)c3ccccc13)CCCCCC2 [Octa-bola]	0.5	32	readily form nanoparticles	32	8.30	17.4	intercalation is reduced if not eliminated	not observed	1	0.5	2	1	0.5	32	0.24	16	0.5	8	0.25		
Cc1cc(N)c2ccccc2[n+]1CCCCCCCCCC[n+]1c(C)cc(N)c2ccccc21 [Dequalinium, dequalinium chloride, reference compound]	1	> 32	readily form nanoparticles	> 32	26.8	2.65	intercalators	not observed	4	4	32	16	0.5	> 32	3.51	> 32	8	32	0.5		
Nc1c2c([n+](CCCCCCCCCCCC[n+]3c4c(c(N)c5ccccc53)CCC4)c3ccccc13)CCC2 [Penta-bola]			to some extent				intercalators	not observed												32	MIC (C. krusei 3876): 0.5 µg/mL; MIC [1]: 32 µg/mL; MIC alone Bolalipid (P. aeruginosa PAO1): 32 µg/mL; MIC (C. auris temp probe): 2 µg/mL; MIC (C. parapsilosis 3209): 1 µg/mL; MIC [4]: 16 µg/mL; MIC [5, 17]: 1 µg/mL; MIC (C. albicans 3179): 0.25 µg/mL; MIC (M. tuberculosis Bleupan): 0.19 µg/mL; MIC (Klebsiella pneumoniae M6): 32 µg/mL; MIC [7, 18]: 1 µg/mL; MIC [8]: 16 µg/mL; MIC (C. tropicalis 8760): 0.25 µg/mL
Nc1c2c([n+](CCCCCCCCCCCC[n+]3c4c(c(N)c5ccccc53)CCCC4)c3ccccc13)CCCC2 [12-bis-THA Cl2, 12,12′-(Dodecane-1,12-diyl)-bis-(9-amino-1,2,3,4-tetrahydroacridinium) chloride]			to some extent				intercalators	not observed												32	MIC (C. krusei 3876): 0.5 µg/mL; MIC [1]: 32 µg/mL; MIC alone Bolalipid (P. aeruginosa PAO1): 32 µg/mL; MIC (C. auris temp probe): 2 µg/mL; MIC (C. parapsilosis 3209): 1 µg/mL; MIC [4]: 4 µg/mL; MIC [5, 17]: 1 µg/mL; MIC (C. albicans 3179): 0.25 µg/mL; MIC (M. tuberculosis Bleupan): 0.87 µg/mL; MIC (Klebsiella pneumoniae M6): 16 µg/mL; MIC [7, 18]: 0.5 µg/mL; MIC [8]: 16 µg/mL; MIC (C. tropicalis 8760): 0.25 µg/mL
Cc1c(N)c2ccccc2[n+](CCCCCCCCCCCC[n+]2c(C)c(C)c(N)c3ccccc32)c1C [Quino-bola]	1	> 32		> 32	31.8	8.94	intercalators	not observed	2	0.5 to 2	8 to 16		0.25			32		16	0.25	32	MIC ([5]; Enterococcus faecalis, NCTC12201): 2 µg/mL; MIC ([7]; Enterococcus faecium, NCTC12204): 2 µg/mL
